Test results from US20260070899A1, “N-(2-(4-CYANOTHIAZOLIDIN-3-YL)-2-OXOETHYL)-QUINOLINE-4-CARBOXAMIDES” (AstraZeneca AB, priority 2022, published 2026).

Columns and labels:
[1] = molecular target: T1, human dipeptidylpeptidase 7 (hDPP7) (Homo sapiens, UniProt Q9UHL4); assay: hDPP7 inhibition assay; format: biochemical; conditions: hDPP7 15 nM, Ala-Pro-amino-methylcoumarin 5 μM; n = 1
T1 construct: purchased BPS Bioscience 80070
Description: Compounds were tested in a biochemical inhibition assay using human dipeptidylpeptidase 7 (hDPP7) enzyme at 15 nM FAC (BPS Bioscience, #80070) and the substrate Ala-Pro-amino-methylcoumarin (BPS Bioscience, #80305) at 5 μM FAC. The enzymatic reactions were conducted in duplicate at rt for 30 min in 50 μL DPP assay buffer (BPS Bioscience, #80300). Compound solutions (in DMSO) at 10 CR, 3 fold dilution series were prepared in assay buffer ten-fold higher than the final concentration, and 5 μL of the dilution was added to a 50 μL reaction so that the highest compound concentration was 100 μM FAC and the concentration of DMSO was 1% in all wells. The plates were read on a Tecan Infinite M1000 microplate reader with excitation 340 nm and emission 460 nm. Data were analyzed in Graph Pad Prism. […] Raw data signals were normalized using 1% DMSO as 0% control and no enzyme as 100% inhibitor control.

[2] = molecular target: T2, human dipeptidylpeptidase 8 (hDPP8) (Homo sapiens, UniProt Q6V1X1); assay: hDPP8 inhibition assay; format: biochemical; conditions: hDPP8 1.5 nM, Ala-Pro-amino-methylcoumarin 5 μM; n = 1
T2 construct: purchased BPS Bioscience 80080
T2 sequence (Q6V1X1 whole entry): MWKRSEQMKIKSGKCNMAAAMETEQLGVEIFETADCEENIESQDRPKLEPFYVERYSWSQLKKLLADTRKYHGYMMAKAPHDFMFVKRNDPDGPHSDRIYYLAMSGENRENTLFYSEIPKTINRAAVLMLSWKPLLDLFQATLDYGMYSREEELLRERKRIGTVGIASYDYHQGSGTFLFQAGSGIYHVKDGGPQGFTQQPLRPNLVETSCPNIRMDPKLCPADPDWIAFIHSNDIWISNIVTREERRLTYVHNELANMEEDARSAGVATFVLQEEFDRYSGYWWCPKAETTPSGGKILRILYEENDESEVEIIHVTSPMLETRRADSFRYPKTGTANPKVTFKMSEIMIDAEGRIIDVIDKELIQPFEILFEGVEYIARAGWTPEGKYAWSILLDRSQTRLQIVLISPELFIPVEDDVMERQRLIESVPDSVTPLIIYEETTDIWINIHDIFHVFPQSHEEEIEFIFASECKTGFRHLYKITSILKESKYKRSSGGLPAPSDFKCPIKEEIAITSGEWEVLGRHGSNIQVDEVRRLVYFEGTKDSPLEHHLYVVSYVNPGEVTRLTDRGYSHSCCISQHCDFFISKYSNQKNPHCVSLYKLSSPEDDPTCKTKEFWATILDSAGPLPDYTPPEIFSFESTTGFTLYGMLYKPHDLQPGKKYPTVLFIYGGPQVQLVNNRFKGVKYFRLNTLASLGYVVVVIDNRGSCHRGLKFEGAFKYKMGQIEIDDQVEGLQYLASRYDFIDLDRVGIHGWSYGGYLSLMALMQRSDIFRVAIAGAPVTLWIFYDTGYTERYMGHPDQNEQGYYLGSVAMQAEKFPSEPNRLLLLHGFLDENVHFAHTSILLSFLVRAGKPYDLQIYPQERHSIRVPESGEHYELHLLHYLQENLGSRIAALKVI
Description: Compounds were tested in a biochemical inhibition assay using human dipeptidylpeptidase 8 (hDPP8) enzyme at 1.5 nM FAC (BPS Bioscience, #80080) and the substrate Ala-Pro-amino-methylcoumarin (BPS Bioscience #80305) at 5 μM FAC. The enzymatic reactions were conducted in duplicate at rt for 30 min in 50 μL DPP assay buffer (BPS Bioscience, #80300). Compound solutions (in DMSO) at 10 CR, 3 fold dilution series were prepared in assay buffer ten-fold higher than the final concentration, and 5 μL of the dilution was added to a 50 μL reaction so that the highest compound concentration was 100 μM FAC and the concentration of DMSO was 1% in all wells. The plates were read on a Tecan Infinite M1000 microplate reader with excitation 340 nm and emission 460 nm. Data were analyzed in Graph Pad Prism. […] Raw data signals were normalized using 1% DMSO as 0% control and no enzyme as 100% inhibitor control.

Rat Hepatocytes (rHep) = assay: Metabolic stability in rat hepatocytes (rHep); format: in vitro ADME; conditions: n = 1 or geometric mean (n = 2-3)
Description: Metabolic stability in rat hepatocytes was measured as described in J Comput Aided Mol Des 2015, 29, 795.

Kinetic solubility = format: physicochemical; conditions: kinetic from dmso stock, n = 1 or average (n = 2-4)
Description: Kinetic solubility was measured as described in Comput Aided Mol Des 2015, 29, 795.

[3] = Metabolic stability in human liver microsomes (HLM); format: in vitro ADME; conditions: n = 1 or average (n = 2-3)
Description: Metabolic stability in HLM was measured as described in J Comput Aided Mol Des 2015, 29, 795.

IC50 [1]	IC50 [2]	rHeps CLint (Rat Hepatocytes (rHep))	solubility (Kinetic solubility)	microsomal CLint [3]	SMILES
> 100 µM	6.4 µM	–	–	–	CC(C)(F)COc1ccc2nccc(C(=O)NCC(=O)N3CSC[C@H]3C#N)c2c1 [Example 3, (R)—N-(2-(4-Cyanothiazolidin-3-yl)-2-oxoethyl)-6-(2-fluoro-2-methylpropoxy)quinoline-4-carboxamide]
–	–	26 μL/min/1E6	> 1000 µM	69 µL/min/mg	COC(C)(C)c1ccc2nccc(C(=O)NCC(=O)N3CSC[C@H]3C#N)c2c1 [Example 18, (R)—N-(2-(4-Cyanothiazolidin-3-yl)-2-oxoethyl)-6-(2-methoxypropan-2-yl)quinoline-4-carboxamide]
